Activity calls are given as the source filed them.
Key:
HEK293 [1] = test: NOD1 signaling inhibitors, primary screen, cell-based, luminescence, uHTS (AID 1578); type: functional; conditions: Homo sapiens
HEK293 [2] = test: cells; type: functional, cell-based; conditions: Homo sapiens
HEK293 [3] = test: cells; type: functional, cell-based; conditions: Homo sapiens; remark: listed apart in the source
[4] = target: Nucleotide-binding oligomerization domain-containing protein 2 (Homo sapiens, UniProt Q9HC29); test: NOD2 signaling inhibitors, cell-based, luminescence, uHTS, HEK293 (AID 1566); type: functional
HEK293 [5] = test: NOD2 signaling inhibitors in MDP-stimulated cells, cell-based, uHTS, luminescence (AID 2001); type: functional; conditions: Homo sapiens
[6] = inhibitors of intracellular T. cruzi replication, confirmation, NIH3T3 host cells, beta-gal luminescence (AID 2044); type: functional, cell-based;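 also: intracellular parasites grown in NIH/3T3 mouse fibroblasts as host cells; luminescent beta-galactosidase reporter signal from transgenic T. cruzi replicating inside host cells; inhibitors lower the luminescence signal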
HEK293 [7] = test: cells; type: functional, cell-based; conditions: Homo sapiens; remark: listed apart in the source
[8] = cytotoxicity toward NIH3T3 fibroblasts, dose response, counter-screen, cell-based, ATP luminescence, mouse fibroblasts (AID 2010); type: functional;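 also: cells exposed to compound for about 90 hours before reading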
Beta-galactosidase = Beta-galactosidase (Escherichia coli, UniProt Q8VNN2); test: beta-galactosidase enzyme inhibitors and activators, dose response, artefact control for CCR6 antagonist project, biochemical, E. coli enzyme, set 3 (AID 504712); type: functional
[9] = target: FAD-linked sulfhydryl oxidase ALR (Homo sapiens, UniProt P55789); test: inhibitors of human ALR sulfhydryl oxidase, dose response, biochemical, H2O2 detection, luminescence, cherry-pick (AID 493248)
[10] = target: Heat shock protein HSP 90-alpha (Homo sapiens, UniProt P07900); type: functional, organism-based
Apelin receptor = Apelin receptor (Homo sapiens, UniProt P35414); test: APJ beta-arrestin recruitment antagonism, SAR follow-up, selectivity assay for CCR6 antagonist project, cell-based, luminescent, enzyme-fragment complementation (AID 588359); type: functional
INS1 = test: beta cell apoptosis inhibitors, cytokine rescue, dose response, luminescence, retest (AID 449756); type: functional, cell-based; conditions: Rattus norvegicus;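 also: cell death triggered by IL-1 beta plus TNF-alpha plus IFN-gamma mixture; protective hits raise ATP signal compared with cytokine alone wells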
[11] = Shn3 3'UTR reporter inhibitors, dose response, cell-based, Clone20 osteoblasts, firefly luciferase, cherry-picked (AID 624132); type: functional;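 also: firefly luciferase luminescence from reporter carrying the Shn3 3'UTR in osteoblasts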
[12] = HepG2 cell cytotoxicity, dose response, cytotoxicity control for Shn3 inhibitor project, CellTiter-Glo, cherry-picked (AID 624134); type: functional, cell-based
[13] = control 3'UTR Renilla luciferase suppression, dose response, counter-screen for Shn3 inhibitor project, cell-based, Clone20-Shn3RL, cherry-picked (AID 624133); type: functional
[14] = Fluorescence-based cell-based high throughput dose response assay for inhibitors of the interaction of nucleotide-binding oligomerization domain containing 2 (NOD2) and the receptor-interacting serine-threonine kinase 2 (RIPK2).; type: functional; conditions: Homo sapiens
[15] = miR-122 activators in hepatoma reporter cells, dose response, cell-based, Huh7 psiCHECK-miR122, Renilla luciferase, cherry-picked (AID 651956); type: functional;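 also: huh7 hepatoma cells stably carrying a psiCHECK-2 miR-122 sensor plasmid; renilla luciferase signal reporting endogenous miR-122 activity after 48 h compound exposure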
[16] = HEK293T cytotoxicity, dose response, cytotoxicity control for miR-122 modulator project, cell-based, inhibitor set, cherry-pick, set 2 (AID 720697); type: functional
[17] = HEK293T cytotoxicity, dose response, cytotoxicity control for miR-122 modulator project, cell-based, activator set, cherry-pick (AID 720690); type: functional;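 also: HEK293T human cells scored for general mammalian cytotoxicity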
Cytochrome P450 2C19 = Cytochrome P450 2C19 (Homo sapiens, UniProt P33261); test: Cytochrome panel assay with activity outcomes. Panel member name: p450-cyp2c19 Compounds with AC50 equal or less than 10 uM are considered active; type: functional; conditions: read-out: AC50
Cytochrome P450 2C9 = Cytochrome P450 2C9 (Homo sapiens, UniProt P11712)
Cytochrome P450 2D6 = Cytochrome P450 2D6 (Homo sapiens, UniProt P10635);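 also: CYP2D6 member of a cytochrome P450 panel assay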
[18] = NIH-3T3 fibroblast cytotoxicity, dose response, cytotoxicity control, cell-based, fluorescence, Alamar Blue, secondary assay (AID 2327); type: functional;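 also: NIH-3T3 mouse fibroblasts cultured with fluconazole at 8 µg/mL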
[19] = inhibitors of firefly luciferase expression or activity, dose response, H4 neuroglioma cells, luminescence (AID 1990); type: functional, cell-based
[20] = Luminescence Cell-Based Dose Response HTS to Identify Inhibitors of 5'UTR Stem-Loop Driven Prion Protein mRNA Translation in H4 Neuroglioblastoma Cells. [Related pubchem assays: 1827 (Project Summary), 1813 (Primary HTS)]; type: functional
[21] = inhibitors of SNCA 5'UTR-driven reporter translation, confirmation, H4 neuroglioma cells, luminescence (AID 1988); type: functional, cell-based
[22] = C. albicans growth with fluconazole, confirmation, fluorescence, retest (AID 2467); type: functional, cell-based
[23] = target: Bifunctional protein GlmU (Mycobacterium tuberculosis, UniProt P9WMN3); test: Inhibitors of Mycobacterial Glucosamine-1-phosphate acetyl transferase (GlmU). Secondary screen.; design: species or system Mycobacterium tuberculosis H37Rv
[24] = target: Induced myeloid leukemia cell differentiation protein Mcl-1 (Homo sapiens, UniProt Q07820); type: functional
[25] = target: Lysine-specific demethylase 4C (Homo sapiens, UniProt Q9H3R0); test: GASC-1 (JMJD2C) histone demethylase inhibitors, dose response, biochemical, DELFIA europium, cherry-picked samples (AID 488835); type: functional
[26] = target: T1, Replicative DNA helicase DnaB (Mycobacterium tuberculosis, UniProt P9WMR3); test: DnaB intein splicing inhibitors, dose response, biochemical, cell-free fluorescence (AID 449749); type: functional
T1 sequence (P9WMR3 whole entry): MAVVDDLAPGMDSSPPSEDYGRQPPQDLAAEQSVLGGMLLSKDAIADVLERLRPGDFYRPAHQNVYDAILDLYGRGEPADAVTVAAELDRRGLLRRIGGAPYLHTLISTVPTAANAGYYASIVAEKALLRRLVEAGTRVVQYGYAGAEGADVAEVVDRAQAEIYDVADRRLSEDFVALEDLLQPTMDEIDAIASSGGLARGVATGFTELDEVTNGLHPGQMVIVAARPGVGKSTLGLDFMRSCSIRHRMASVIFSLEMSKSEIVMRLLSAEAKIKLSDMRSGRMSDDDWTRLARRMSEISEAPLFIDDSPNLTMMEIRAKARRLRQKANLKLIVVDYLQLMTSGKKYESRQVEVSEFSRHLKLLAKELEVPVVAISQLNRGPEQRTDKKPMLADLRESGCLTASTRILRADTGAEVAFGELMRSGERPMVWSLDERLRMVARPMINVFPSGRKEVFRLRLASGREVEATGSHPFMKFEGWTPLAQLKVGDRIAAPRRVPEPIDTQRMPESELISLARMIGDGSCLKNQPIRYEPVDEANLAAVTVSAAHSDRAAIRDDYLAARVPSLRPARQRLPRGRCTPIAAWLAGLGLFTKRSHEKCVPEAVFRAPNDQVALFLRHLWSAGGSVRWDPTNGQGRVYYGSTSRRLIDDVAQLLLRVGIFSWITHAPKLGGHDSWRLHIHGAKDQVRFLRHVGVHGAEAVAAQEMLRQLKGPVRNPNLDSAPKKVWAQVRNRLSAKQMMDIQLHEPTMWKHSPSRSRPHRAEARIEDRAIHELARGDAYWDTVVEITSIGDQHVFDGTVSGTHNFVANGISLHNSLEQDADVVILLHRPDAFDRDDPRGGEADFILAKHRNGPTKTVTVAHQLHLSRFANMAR

Protein RecA = target: T2, Protein RecA (Mycobacterium tuberculosis, UniProt P9WHJ3); test: Fluorescence Cell-Free Homogeneous Dose Retest to Identify Inhibitors of RecA-Intein Splicing Activity. [Related pubchem assays (depositor defined):AID2097, AID2223, AID489010, AID492950]; type: functional
T2 sequence (P9WHJ3 whole entry): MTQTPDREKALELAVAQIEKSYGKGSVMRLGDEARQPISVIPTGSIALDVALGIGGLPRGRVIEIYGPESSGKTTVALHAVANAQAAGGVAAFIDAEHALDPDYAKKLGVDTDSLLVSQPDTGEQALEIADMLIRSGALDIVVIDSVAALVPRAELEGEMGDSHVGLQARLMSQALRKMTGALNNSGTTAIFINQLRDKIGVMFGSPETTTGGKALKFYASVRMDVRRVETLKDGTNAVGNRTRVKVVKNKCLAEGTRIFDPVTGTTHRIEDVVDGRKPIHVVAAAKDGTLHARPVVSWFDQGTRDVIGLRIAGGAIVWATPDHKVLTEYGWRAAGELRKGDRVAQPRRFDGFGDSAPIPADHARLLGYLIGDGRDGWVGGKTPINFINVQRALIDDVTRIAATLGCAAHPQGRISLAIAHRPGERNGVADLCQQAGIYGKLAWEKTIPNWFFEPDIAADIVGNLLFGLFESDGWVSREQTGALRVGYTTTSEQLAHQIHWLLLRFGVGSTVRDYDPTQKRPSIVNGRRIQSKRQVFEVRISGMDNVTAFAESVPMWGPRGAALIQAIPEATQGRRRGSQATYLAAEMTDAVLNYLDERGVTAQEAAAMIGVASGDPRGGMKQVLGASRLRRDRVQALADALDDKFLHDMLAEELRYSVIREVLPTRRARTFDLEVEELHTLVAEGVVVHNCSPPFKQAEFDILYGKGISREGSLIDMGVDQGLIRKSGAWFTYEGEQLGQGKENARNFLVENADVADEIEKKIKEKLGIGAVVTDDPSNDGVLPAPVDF

Caspase-6 = target: T3, Caspase-6 (Homo sapiens, UniProt P55212); test: human caspase-6 inhibitors, dose response, biochemical, VEID-R110 fluorescence, cherry-pick (AID 720632)
T3 sequence (P55212 whole entry): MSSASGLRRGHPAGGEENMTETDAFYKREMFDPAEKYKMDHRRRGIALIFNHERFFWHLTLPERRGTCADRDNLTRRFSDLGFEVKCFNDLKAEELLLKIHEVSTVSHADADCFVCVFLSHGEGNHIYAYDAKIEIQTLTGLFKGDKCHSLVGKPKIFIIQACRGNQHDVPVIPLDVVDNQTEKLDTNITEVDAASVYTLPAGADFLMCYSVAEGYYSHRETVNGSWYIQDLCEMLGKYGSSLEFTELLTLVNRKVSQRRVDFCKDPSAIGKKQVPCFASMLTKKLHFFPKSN

Cytochrome P450 1A2 = target: T4, Cytochrome P450 1A2 (Homo sapiens, UniProt P05177);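 also: PubChem cytochrome P450 panel assay, CYP1A2 panel member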
T4 sequence (P05177 whole entry): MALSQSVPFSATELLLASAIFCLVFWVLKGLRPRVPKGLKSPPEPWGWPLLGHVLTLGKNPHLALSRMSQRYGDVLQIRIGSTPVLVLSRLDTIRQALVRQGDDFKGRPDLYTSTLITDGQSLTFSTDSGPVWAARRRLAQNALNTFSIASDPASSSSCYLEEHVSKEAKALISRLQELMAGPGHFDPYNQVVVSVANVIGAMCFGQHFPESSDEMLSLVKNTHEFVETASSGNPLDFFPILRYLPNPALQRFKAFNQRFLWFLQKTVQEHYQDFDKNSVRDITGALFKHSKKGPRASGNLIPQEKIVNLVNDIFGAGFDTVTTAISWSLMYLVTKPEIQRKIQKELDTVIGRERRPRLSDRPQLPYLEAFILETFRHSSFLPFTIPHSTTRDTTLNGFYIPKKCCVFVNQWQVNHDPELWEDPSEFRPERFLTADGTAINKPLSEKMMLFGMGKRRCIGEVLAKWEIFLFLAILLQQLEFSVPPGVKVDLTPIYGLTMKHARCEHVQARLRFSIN

Chain of Cytochrome P450 2C19 (P33261 whole entry): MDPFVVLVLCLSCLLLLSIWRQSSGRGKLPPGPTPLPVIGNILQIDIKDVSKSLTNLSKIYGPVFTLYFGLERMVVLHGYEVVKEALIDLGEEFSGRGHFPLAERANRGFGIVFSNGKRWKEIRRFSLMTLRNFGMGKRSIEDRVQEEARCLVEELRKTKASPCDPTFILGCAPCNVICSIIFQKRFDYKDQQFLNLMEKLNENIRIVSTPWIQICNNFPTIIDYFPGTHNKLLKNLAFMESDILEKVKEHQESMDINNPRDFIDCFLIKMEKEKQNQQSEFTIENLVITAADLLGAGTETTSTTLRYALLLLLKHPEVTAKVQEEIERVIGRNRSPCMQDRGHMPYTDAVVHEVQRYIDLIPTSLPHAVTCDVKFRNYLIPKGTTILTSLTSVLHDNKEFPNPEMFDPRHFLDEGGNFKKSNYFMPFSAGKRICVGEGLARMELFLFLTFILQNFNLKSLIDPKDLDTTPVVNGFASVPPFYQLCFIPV
Chain of Cytochrome P450 2D6 (P10635 whole entry): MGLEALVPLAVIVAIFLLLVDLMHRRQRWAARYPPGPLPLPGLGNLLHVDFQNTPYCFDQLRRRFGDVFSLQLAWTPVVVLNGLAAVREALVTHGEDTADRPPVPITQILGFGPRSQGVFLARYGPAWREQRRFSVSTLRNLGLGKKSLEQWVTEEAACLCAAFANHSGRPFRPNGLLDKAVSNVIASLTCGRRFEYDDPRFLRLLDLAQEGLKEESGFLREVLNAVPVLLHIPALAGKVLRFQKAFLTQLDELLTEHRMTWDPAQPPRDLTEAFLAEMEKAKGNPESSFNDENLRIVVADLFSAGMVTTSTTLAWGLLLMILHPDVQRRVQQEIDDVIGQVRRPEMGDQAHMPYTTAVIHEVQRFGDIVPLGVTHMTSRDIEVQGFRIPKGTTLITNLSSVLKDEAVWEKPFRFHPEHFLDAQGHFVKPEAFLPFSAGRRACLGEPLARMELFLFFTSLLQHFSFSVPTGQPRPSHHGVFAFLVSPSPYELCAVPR
Chain of Lysine-specific demethylase 4C (Q9H3R0 whole entry): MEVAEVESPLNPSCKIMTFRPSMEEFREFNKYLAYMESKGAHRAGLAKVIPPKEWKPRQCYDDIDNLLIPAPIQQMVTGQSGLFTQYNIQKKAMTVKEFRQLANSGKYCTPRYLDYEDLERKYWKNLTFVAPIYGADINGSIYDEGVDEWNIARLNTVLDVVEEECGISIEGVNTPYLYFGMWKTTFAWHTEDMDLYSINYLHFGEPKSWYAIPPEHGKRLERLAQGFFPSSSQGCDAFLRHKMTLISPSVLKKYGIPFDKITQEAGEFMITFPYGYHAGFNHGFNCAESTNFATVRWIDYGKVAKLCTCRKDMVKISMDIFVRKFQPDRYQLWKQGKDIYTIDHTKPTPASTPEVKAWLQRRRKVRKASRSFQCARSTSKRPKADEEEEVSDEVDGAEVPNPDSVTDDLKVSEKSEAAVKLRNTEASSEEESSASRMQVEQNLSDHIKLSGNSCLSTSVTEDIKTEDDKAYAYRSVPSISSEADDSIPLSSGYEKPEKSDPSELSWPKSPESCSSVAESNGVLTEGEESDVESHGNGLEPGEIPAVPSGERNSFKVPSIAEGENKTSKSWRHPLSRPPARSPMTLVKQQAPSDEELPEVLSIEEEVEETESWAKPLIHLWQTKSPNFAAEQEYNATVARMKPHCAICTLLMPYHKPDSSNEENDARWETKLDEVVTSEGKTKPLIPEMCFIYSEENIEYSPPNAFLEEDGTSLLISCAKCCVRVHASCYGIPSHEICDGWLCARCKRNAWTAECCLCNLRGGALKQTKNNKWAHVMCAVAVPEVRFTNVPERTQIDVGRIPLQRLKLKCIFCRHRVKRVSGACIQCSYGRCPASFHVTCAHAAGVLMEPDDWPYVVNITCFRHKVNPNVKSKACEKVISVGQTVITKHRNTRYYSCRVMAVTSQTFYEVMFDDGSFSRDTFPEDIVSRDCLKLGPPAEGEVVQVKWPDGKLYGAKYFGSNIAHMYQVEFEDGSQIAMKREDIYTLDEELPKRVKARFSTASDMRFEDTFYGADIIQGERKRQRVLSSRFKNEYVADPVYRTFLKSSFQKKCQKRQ
Chain of Nucleotide-binding oligomerization domain-containing protein 2 (Q9HC29 whole entry, the tested form may be a part): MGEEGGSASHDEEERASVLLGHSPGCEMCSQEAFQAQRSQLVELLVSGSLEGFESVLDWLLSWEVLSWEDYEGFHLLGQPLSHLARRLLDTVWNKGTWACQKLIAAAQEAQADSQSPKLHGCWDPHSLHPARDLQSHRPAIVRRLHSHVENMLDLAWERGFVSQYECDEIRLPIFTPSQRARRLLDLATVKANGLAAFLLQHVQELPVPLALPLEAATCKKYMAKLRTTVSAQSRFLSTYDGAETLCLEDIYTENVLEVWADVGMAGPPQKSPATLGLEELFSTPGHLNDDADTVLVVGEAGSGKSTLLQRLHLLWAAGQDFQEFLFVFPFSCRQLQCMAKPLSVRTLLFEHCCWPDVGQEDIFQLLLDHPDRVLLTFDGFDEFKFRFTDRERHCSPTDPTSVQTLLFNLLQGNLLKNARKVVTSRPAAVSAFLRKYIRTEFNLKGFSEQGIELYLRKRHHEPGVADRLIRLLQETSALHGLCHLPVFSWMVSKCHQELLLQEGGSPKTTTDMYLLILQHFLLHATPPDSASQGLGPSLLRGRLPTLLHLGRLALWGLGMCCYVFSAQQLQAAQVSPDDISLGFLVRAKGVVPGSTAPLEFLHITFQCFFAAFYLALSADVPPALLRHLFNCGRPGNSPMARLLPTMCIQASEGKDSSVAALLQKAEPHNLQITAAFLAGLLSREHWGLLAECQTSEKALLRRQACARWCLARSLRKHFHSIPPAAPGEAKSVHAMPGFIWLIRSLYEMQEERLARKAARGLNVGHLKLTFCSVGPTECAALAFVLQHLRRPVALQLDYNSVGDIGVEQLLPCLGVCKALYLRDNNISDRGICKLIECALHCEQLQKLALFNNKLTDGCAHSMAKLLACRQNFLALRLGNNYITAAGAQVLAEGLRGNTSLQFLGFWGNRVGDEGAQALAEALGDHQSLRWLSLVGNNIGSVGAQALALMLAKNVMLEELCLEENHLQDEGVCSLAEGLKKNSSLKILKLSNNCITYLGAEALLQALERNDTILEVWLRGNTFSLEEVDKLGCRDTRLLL
Chain of Apelin receptor (P35414 whole entry, the tested form may be a part): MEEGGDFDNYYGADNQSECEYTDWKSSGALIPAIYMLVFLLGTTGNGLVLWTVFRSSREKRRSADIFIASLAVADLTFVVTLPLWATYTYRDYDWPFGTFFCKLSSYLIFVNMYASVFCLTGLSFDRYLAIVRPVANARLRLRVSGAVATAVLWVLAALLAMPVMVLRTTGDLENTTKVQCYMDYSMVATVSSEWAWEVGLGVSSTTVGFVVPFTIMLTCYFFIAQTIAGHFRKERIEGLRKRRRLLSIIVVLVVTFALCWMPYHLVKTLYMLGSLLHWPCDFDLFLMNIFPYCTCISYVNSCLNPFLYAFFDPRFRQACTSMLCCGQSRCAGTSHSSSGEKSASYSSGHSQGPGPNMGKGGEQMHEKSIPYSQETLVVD
Chain of Beta-galactosidase (Q8VNN2 whole entry): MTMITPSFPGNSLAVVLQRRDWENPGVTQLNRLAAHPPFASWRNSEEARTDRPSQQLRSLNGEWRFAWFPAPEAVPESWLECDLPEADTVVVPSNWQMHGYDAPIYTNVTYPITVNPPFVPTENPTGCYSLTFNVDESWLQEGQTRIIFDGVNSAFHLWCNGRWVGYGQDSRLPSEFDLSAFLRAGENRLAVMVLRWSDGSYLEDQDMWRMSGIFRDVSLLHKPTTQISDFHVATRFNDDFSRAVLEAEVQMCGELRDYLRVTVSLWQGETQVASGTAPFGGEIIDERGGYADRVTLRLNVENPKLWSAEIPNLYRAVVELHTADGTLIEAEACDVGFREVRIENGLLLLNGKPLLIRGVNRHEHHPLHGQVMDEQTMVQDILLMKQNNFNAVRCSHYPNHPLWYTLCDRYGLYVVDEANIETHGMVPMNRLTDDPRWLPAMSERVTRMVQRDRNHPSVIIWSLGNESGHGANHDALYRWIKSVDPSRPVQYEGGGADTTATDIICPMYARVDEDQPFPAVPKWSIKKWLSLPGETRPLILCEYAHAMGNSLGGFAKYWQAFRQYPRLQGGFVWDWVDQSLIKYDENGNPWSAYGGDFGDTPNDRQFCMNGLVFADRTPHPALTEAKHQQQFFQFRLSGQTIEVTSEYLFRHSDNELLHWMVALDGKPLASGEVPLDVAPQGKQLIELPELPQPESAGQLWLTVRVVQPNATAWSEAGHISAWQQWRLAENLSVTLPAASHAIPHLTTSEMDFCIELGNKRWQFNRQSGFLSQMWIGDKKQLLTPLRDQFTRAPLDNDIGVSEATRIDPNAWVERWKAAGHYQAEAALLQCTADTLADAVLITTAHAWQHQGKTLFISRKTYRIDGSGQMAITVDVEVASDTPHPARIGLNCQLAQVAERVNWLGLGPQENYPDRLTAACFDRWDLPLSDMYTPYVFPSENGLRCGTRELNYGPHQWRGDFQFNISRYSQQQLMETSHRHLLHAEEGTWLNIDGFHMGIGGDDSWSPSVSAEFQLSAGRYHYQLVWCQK
Chain of FAD-linked sulfhydryl oxidase ALR (P55789 whole entry): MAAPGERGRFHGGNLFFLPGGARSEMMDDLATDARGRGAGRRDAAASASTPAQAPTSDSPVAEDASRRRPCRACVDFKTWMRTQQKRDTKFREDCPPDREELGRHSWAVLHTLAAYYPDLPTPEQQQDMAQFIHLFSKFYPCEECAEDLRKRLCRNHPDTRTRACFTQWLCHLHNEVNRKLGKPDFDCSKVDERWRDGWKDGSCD
Chain of Induced myeloid leukemia cell differentiation protein Mcl-1 (Q07820 whole entry): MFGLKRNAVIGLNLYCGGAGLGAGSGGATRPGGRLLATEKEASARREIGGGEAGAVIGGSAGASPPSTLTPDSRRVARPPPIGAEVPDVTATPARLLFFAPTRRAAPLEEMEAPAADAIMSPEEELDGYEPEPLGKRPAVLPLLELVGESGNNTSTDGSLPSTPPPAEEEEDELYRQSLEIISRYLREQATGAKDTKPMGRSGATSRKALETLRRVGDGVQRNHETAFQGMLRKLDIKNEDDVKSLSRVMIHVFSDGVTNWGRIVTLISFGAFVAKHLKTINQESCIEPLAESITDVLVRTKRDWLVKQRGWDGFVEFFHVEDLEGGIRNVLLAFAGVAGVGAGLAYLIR

## Cc1ccc(S(=O)(=O)c2ccc([N+](=O)[O-])cn2)cc1
HEK293 [1]
  EC50: 6.69 µM (active)
HEK293 [2]
  IC50: 5.37 µM (active)
HEK293 [3]
  IC50: > 20 µM (inactive)
[4]
  EC50: > 20 µM (inactive)
HEK293 [5]
  IC50: 6.5 µM (active)
[6]
  EC50: 2.38 µM (active)
HEK293 [7]
  IC50: > 20 µM (inactive)
[8]
  EC50: 3.42 µM (active)
Beta-galactosidase
  IC50: > 66.6 µM (inactive)
[9]
  AC50: 15.3 µM (active)
[10]
  AC50: 4.18 µM (active)
Apelin receptor
  IC50: 23.4 µM (inactive)
INS1
  AC50: > 260 µM (inactive)
[11]
  AC50: 3.85 µM (active)
[12]
  AC50: 12.1 µM (active)
[13]
  AC50: 3.26 µM (active)
[14]
  IC50: 6.33 µM (active)
[15]
  AC50: 10.6 µM (active)
[16]
  AC50: 7.35 µM (active)
[17]
  AC50: 4.36 µM (active)

## COc1ccc(C(=O)Nc2cccc(-c3cnc4ccccc4n3)c2)cc1
Cytochrome P450 2C19
  AC50: 2.24 µM (inconclusive)
Cytochrome P450 2C9
  AC50: 1.78 µM (inconclusive)
Cytochrome P450 2D6
  AC50: inconclusive

## O=[N+]([O-])c1cc(/C=N/Nc2nc3ccccc3[nH]2)c(O)cc1O
[18]
  EC50: > 150 µM (inactive)
[19]
  EC50: 9.68 µM (inconclusive)
[20]
  EC50: 11.2 µM (active)
[21]
  EC50: 3.81 µM (active)
[22]
  EC50: 2.33 µM (active)
[23]
  IC50: 125 µM (active)
[24]
  IC50: 6.08 µM (active)
[25]
  AC50: 3.07 µM (active)
[26]
  AC50: 4.22 µM (active)
Protein RecA
  EC50: 6.73 µM (active)
INS1
  AC50: 0.483 µM (active)
Caspase-6
  AC50: 5.37 µM (active)

## CCc1ccc(N2CC(C(=O)N/N=C/c3cccc([N+](=O)[O-])c3)CC2=O)cc1 (stereo not drawn)
Cytochrome P450 2C19
  AC50: 0.316 µM (inconclusive)
Cytochrome P450 1A2
  AC50: 3.16 µM (inconclusive)
Cytochrome P450 2D6
  AC50: inconclusive

From ChEMBL document CHEMBL1201862, “PubChem BioAssay data set” (2004)
